# Experimental data taken from patent publication US20230339970A1, “CASEIN KINASE 1 DELTA MODULATORS” (priority 2020, published 2023).
# Key:
# human CSNK1D = biological target: T1, human CSNK1D (Homo sapiens, UniProt P48730); experiment: Whole Cell nBRET CSNK1D Binding Assay; conditions: living CHO cells stably expressing human CSNK1D tagged with nanoluciferase; NanoBret tracer 130 nM; 2 hours at 37 C
# T1 construct: expressed in transfected cells
# [1] = biological target: T2, human recombinant GST cleaved CSNK1D (Homo sapiens, UniProt P48730); experiment: Purified Enzyme Assay (ADP-Glo CSNK1D Kinase Assay); type: biochemical; conditions: 2 nM CSNK1D; peptide substrate 150 μM; ATP 20 μM; 45 minutes at room temperature
# T2 construct: GST (cleaved yes); purchased University of Dundee clone DU 19064
# In short: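 Percent activity derived from ADP-Glo quantification of ADP produced. Reactions: compound dose-response with human recombinant GST-cleaved CSNK1D, ATP and substrate peptide PLSRTL-pS-VASLPGL, incubated 45 min at room temperature.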
# T1 sequence (P48730 whole entry): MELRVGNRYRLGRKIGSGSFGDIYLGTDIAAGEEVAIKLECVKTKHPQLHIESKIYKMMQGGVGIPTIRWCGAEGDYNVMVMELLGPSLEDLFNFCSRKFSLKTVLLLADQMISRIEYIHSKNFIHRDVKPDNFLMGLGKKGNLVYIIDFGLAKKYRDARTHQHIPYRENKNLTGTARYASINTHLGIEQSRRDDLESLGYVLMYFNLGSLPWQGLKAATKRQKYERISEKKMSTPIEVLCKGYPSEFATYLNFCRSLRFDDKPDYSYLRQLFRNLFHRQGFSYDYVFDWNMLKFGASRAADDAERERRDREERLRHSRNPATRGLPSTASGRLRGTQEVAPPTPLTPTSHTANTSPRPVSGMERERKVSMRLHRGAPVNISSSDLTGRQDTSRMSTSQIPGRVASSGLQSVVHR
# T2 sequence (P48730 whole entry): as above
Compound,IC50 (human CSNK1D) [nM],IC50 [1] [nM]
"CC1(C)Cn2nc(-c3ccc(F)cn3)c(-c3cc(C(F)F)nc4[nH]ncc34)c2CO1 [Example 390, 3-[6-(Difluoromethyl)-1H-pyrazolo[3,4-b]pyridin-4-yl]-2-(5-fluoro-2-pyridyl)-6,6-dimethyl-4,7-dihydropyrazolo[5,1-c][1,4]oxazine]",141,6
"c1csc(-c2nn3c(c2-c2ccnc4[nH]ncc24)CCCC3)n1 [Example 29, 2-(3-(1H-Pyrazolo[3,4-b]pyridin-4-yl)-4,5,6,7-tetrahydropyrazolo[1,5-a]pyridin-2-yl)thiazole]",1200,35
"Cc1nc(-c2c(-c3ccc(F)cc3)nn3c2CCC3)c2cn[nH]c2n1 [Example 225, 4-[2-(4-Fluorophenyl)-5,6-dihydro-4H-pyrrolo[1,2-b]pyrazol-3-yl]-6-methyl-1H-pyrazolo[3,4-d]pyrimidine]",88,8
"Cc1cc(-c2c(-c3ccc(F)cn3)nn3c2CCC(F)(F)C3)c2cn[nH]c2n1 [Example 45, 4-(6,6-Difluoro-2-(5-fluoropyridin-2-yl)-4,5,6,7-tetrahydropyrazolo[1,5-a]pyridin-3-yl)-6-methyl-1H-pyrazolo[3,4-b]pyridine]",169,12
"Cc1nc2[nH]ncc2c(-c2c(-c3ccc(F)cn3)nn3c2CC[C@@]2(C3)CC2(F)F)c1F (single isomer, unassigned) [Example 331, (*S)-2,2-Difluoro-3′-(5-fluoro-6-methyl-1H-pyrazolo[3,4-b]pyridin-4-yl)-2′-(5-fluoropyridin-2-yl)-4′,5′-dihydro-7′H-spiro[cyclopropane-1,6′-pyrazolo[1,5-a]pyridine]]",89,18
"Fc1ccc(-c2nn3c(c2-c2ccnc4[nH]c(C(F)F)cc24)COCC3)nc1 [Example 75, 3-(2-(Difluoromethyl)-1H-pyrrolo[2,3-b]pyridin-4-yl)-2-(5-fluoropyridin-2-yl)-6,7-dihydro-4H-pyrazolo[5,1-c][1,4]oxazine]",> 10000,15
"CC[C@H]1Cn2nc(-c3ccc(F)cn3)c(-c3ccnc4[nH]ncc34)c2CO1 (single isomer, unassigned) [Example 96, (*S)-6-Ethyl-2-(5-fluoropyridin-2-yl)-3-(1H-pyrazolo[3,4-b]pyridin-4-yl)-6,7-dihydro-4H-pyrazolo[5,1-c][1,4]oxazine]",2730,32
"Cn1cnc(-c2nn3c(c2-c2ccnc4[nH]ncc24)COC(C)(C)C3)c1 [Example 127, 6,6-Dimethyl-2-(1-methyl-1H-imidazol-4-yl)-3-(1H-pyrazolo[3,4-b]pyridin-4-yl)-6,7-dihydro-4H-pyrazolo[5,1-c][1,4]oxazine]",3250,51
"Cc1cc(-c2c(-c3ccc(F)cc3)nn3c2CO[C@H](C)C3)c2cn[nH]c2n1 (single isomer, unassigned) [Example 84, (*R)-2-(4-Fluorophenyl)-6-methyl-3-(6-methyl-1H-pyrazolo[3,4-b]pyridin-4-yl)-6,7-dihydro-4H-pyrazolo[5,1-c][1,4]oxazine]",25,1
"Fc1ccc(-c2nn3c(c2-c2ccnc4[nH]ncc24)CCC2(C3)CC2(F)F)nc1 (single isomer, unassigned) [Example 327, (*S)-2,2-Difluoro-2′-(5-fluoropyridin-2-yl)-3′-(1H-pyrazolo[3,4-b]pyridin-4-yl)-4′,5′-dihydro-7′H-spiro[cyclopropane-1,6′-pyrazolo[1,5-a]pyridine]]",97,14
"Cc1cc(-c2c(-c3ccc(F)cn3)nn3c2CO[C@@H](C)C3)c2cn[nH]c2n1 (single isomer, unassigned) [Example 89]",275,9
"CC1(C)Cn2nc(-c3ccc(Cl)cn3)c(-c3ccnc4[nH]ncc34)c2CO1 [Example 146, 2-(5-Chloropyridin-2-yl)-6,6-dimethyl-3-(1H-pyrazolo[3,4-b]pyridin-4-yl)-6,7-dihydro-4H-pyrazolo[5,1-c][1,4]oxazine]",359,18
"COCC1(F)CCc2c(-c3c(F)c(C)nc4[nH]ncc34)c(-c3ccc(F)cn3)nn2C1 (single isomer, unassigned) [Example 309, (*R)-5-Fluoro-4-[6-fluoro-2-(5-fluoro-2-pyridyl)-6-(methoxymethyl)-5,7-dihydro-4H-pyrazolo[1,5-a]pyridin-3-yl]-6-methyl-1H-pyrazolo[3,4-b]pyridine]",1320,97
"Cc1cc(-c2c(-c3ccc(F)cn3)nn3c2CC2(C3)CC2(F)F)c2cn[nH]c2n1 (single isomer, unassigned) [Example 261, (*R)-1′,1′-Difluoro-2-(5-fluoro-2-pyridyl)-3-(6-methyl-1H-pyrazolo[3,4-b]pyridin-4-yl)spiro[4,6-dihydropyrrolo[1,2-b]pyrazole-5,2′-cyclopropane]]",2670,63

# The remaining molecules from weak to strong by IC50 (human CSNK1D), led by results:
IC50 (human CSNK1D) [nM],IC50 [1] [nM],Compound
87,4,"Cc1cc(-c2c(-c3ccc(F)cn3)nn3c2CCC3)c2cn[nH]c2n1 [Example 8, 4-[2-(5-Fluoro-2-pyridyl)-5,6-dihydro-4H-pyrrolo[1,2-b]pyrazol-3-yl]-6-methyl-1H-pyrazolo[3,4-b]pyridine]"
80,3,"Fc1ccc(-c2nn3c(c2-c2ccnc4[nH]ncc24)[C@@H](Cl)C[C@]2(C3)CC2(F)F)nc1 (single isomer, unassigned) [Example 337, (1*S,4′*S)-4′-Chloro-2,2-difluoro-2′-(5-fluoropyridin-2-yl)-3′-(1H-pyrazolo[3,4-b]pyridin-4-yl)-4′,5′-dihydro-7′H-spiro[cyclopropane-1,6′-pyrazolo[1,5-a]pyridine]]"
80,4,"Fc1ccc(-c2nn3c(c2-c2c(F)cnc4[nH]ncc24)OCC2(CC2)C3)nc1 [Example 459, 3′-(5-Fluoro-1H-pyrazolo[3,4-b]pyridin-4-yl)-2′-(5-fluoropyridin-2-yl)-5′H,7′H-spiro[cyclopropane-1,6′-pyrazolo[5,1-b][1,3]oxazine]]"
79,11,"Cc1cc(-c2c(-c3ccc(F)cc3)nn3c2CC(F)(F)CC3)c2cn[nH]c2n1 [Example 47, 4-(5,5-Difluoro-2-(4-fluorophenyl)-4,5,6,7-tetrahydropyrazolo[1,5-a]pyridin-3-yl)-6-methyl-1H-pyrazolo[3,4-b]pyridine]"
77,8,"Fc1ccc(-c2nn3c(c2-c2c(F)cnc4[nH]ccc24)CCCC3)nc1 [Example 34, 5-Fluoro-4-[2-(5-fluoro-2-pyridyl)-4,5,6,7-tetrahydropyrazolo[1,5-a]pyridin-3-yl]-1H-pyrrolo[2,3-b]pyridine]"
56,4,"Cc1cc(-c2c(-c3ccc(F)cn3)nn3c2OC(C)CC3)c2cn[nH]c2n1 (single isomer, unassigned) [Example 200, (*S)-2-(5-Fluoro-2-pyridyl)-5-methyl-3-(6-methyl-1H-pyrazolo[3,4-b]pyridin-4-yl)-6,7-dihydro-5H-pyrazolo[5,1-b][1,3]oxazine]"
56,5,"Cc1nc2[nH]nc(C)c2c(-c2c(-c3ccc(F)cn3)nn3c2C[C@@H]2C[C@@H]23)c1F [Example 274, (4aS,5aS)-3-(5-Fluoro-3,6-dimethyl-1H-pyrazolo[3,4-b]pyridin-4-yl)-2-(5-fluoropyridin-2-yl)-4,4a,5,5a-tetrahydrocyclopropa[4,5]pyrrolo[1,2-b]pyrazole]"
49,5,"Fc1ccc(-c2nn3c(c2-c2c(F)cnc4[nH]ncc24)COC2(C3)CC2(F)F)nc1 (single isomer, unassigned) [Example 435, (*R)-1′. 1′-Difluoro-3-(5-fluoro-1H-pyrazolo[3,4-b]pyridin-4-yl)-2-(5-fluoro-2-pyridyl)spiro[4,7-dihydropyrazolo[5,1-c][1,4]oxazine-6,2′-cyclopropane]]"
43,5,"CC1(C)CCn2nc(-c3ccc(F)cc3)c(-c3ccnc4[nH]ncc34)c21 [Example 245, 4-[2-(4-Fluorophenyl)-4,4-dimethyl-5,6-dihydropyrrolo[1,2-b]pyrazol-3-yl]-1H-pyrazolo[3,4-b]pyridine]"
20,2,"Cc1nc2[nH]ncc2c(-c2c(-c3ccc(F)cn3)nn3c2OCC2(CC2)C3)c1F [Example 463, 3′-(5-Fluoro-6-methyl-1H-pyrazolo[3,4-b]pyridin-4-yl)-2′-(5-fluoropyridin-2-yl)-5′H,7′H-spiro[cyclopropane-1,6′-pyrazolo[5,1-b][1,3]oxazine]]"
14,1,"Nc1cc(-c2c(-c3ccc(F)cc3)nn3c2C[C@H](F)C3)ccn1 [Example 10, (S)-4-(5-Fluoro-2-(4-fluorophenyl)-5,6-dihydro-4H-pyrrolo[1,2-b]pyrazol-3-yl)pyridin-2-amine]"
4,1,"Fc1ccc(-c2nn3c(c2-c2ccnc4[nH]ncc24)OCC2(C3)CC2(F)F)nc1 (single isomer, unassigned) [Example 478, (*S)-2,2-Difluoro-2′-(5-fluoropyridin-2-yl)-3′-1H-pyrazolo[3,4-b]pyridin-4-yl)-5′H,7′H-spiro[cyclopropane-1,6′-pyrazolo[5,1-b][1,3]oxazine]]"
2,1,"Fc1ccc(-c2nn3c(c2-c2ccnc4[nH]ncc24)OCC2(CC2)C3)cc1 [Example 457, 2′-(4-Fluorophenyl)-3′-(1H-pyrazolo[3,4-b]pyridin-4-yl)-5′H,7′H-spiro[cyclopropane-1,6′-pyrazolo[5,1-b][1,3]oxazine]]"
